Measurements taken from paper PMC7271024, “N1-Benzofused Modification of Fluoroquinolones Reduces Activity Against Gram-Negative Bacteria” (ACS Omega, 2020).
In brackets after ≈: the same amount, converted by molar mass. One block for each compound: values may come before it.

What was measured:
[1] = system: K. pneumoniae M6; test: MIC, microdilution broth method; format: cell-based, Klebsiella pneumoniae; details: for MIC: Klebsiella pneumoniae; for potentiation of MIC by PMBN: MIC –PMBN vs +PMBN
[2] = system: E. coli LEC001; test: MIC, microdilution broth method; format: cell-based, Escherichia coli; details: for MIC: Escherichia coli
Protocol: (§1) The antibacterial activities of the synthesized fluoroquinolones were evaluated against a panel of Gram-negative pathogens including K. pneumoniae (NCTC 13368, M6), Acinetobacter baumannii (AYE, ATCC 17978), Pseudomonas aeruginosa (PAO1, NCTC 13437), and Escherichia coli (NCTC 12923, LEC001). The ability of molecules to permeate the Gram-negative outer membrane was investigated by adding membrane permeabilizer polymyxin B nonapeptide (PMBN) at sub-inhibitory concentrations (Table 2). Phenylalanine–arginine β-naphthylamide (PAβN) was used to investigate efflux of compounds by resistance–nodulation–division (RND)-family efflux pumps (Table 3).
(§2) Minimal inhibitory concentrations (MICs) were determined using the microdilution broth method. Briefly, compounds were added to the first two columns of a 96-well plate and diluted two-fold down the plate in tryptic soy broth. Overnight cultures of bacteria were then adjusted to a concentration of 1 × 10^6 CFU/mL and added to each well for a final concentration of 5 × 10^5 CFU/mL.

[3] = system: E. coli NCTC 12923; test: MIC, microdilution broth method; format: cell-based, Escherichia coli; details: for MIC: Escherichia coli
[4] = system: A. baumannii AYE; test: MIC, microdilution broth method; format: cell-based, Acinetobacter baumannii; details: for MIC: Acinetobacter baumannii
Protocol: as §1, §2

[5] = system: P. aeruginosa PAO1; test: MIC, microdilution broth method; format: cell-based, Pseudomonas aeruginosa; details: Pseudomonas aeruginosa
[6] = system: P. aeruginosa NCTC 13437; test: MIC, microdilution broth method; format: cell-based, Pseudomonas aeruginosa; details: Pseudomonas aeruginosa
Protocol: as §1, §2

[7] = system: A. baumannii ATCC 17978; test: MIC, microdilution broth method; format: cell-based, Acinetobacter baumannii; details: for MIC: Acinetobacter baumannii; for potentiation of MIC by PMBN: MIC –PMBN vs +PMBN
[8] = system: panel of Gram-negative pathogens; test: MIC panel, statements across strains; format: cell-based, K. pneumoniae, A. baumannii, P. aeruginosa, E. coli; details: versus ciprofloxacin
Protocol: as §1, §2

[9] = system: K. pneumoniae NCTC 13368; test: MIC, microdilution broth method; format: cell-based, Klebsiella pneumoniae; details: for MIC: Klebsiella pneumoniae; for potentiation of MIC by PMBN: MIC –PMBN vs +PMBN
Protocol: as §1, §2

[10] = Solubility as observed in the MIC and enzyme experiments; format: physicochemical; details: S. aureus DNA gyrase / topoisomerase IV assay media, at the high concentrations required
Protocol: In vitro activity assays using purified S. aureus, E. coli and P. aeruginosa DNA gyrase, and S. aureus topoisomerase IV enzymes were performed in order to evaluate whether the gains in inhibitory activity predicted for the benzofused compounds were accurate. The benzothiophene-containing 6e was selected as a representative compound for the purposes of this experiment. […].
A general correlation between N1 substituent hydrophobicity and activity is observed; […].

[11] = target: T1, E. coli DNA gyrase (Escherichia coli, UniProt P0AES4+P0AES6); test: Cell-free gyrase supercoiling inhibition assay; format: biochemical; details: purified enzyme, cell-free supercoiling kit
T1 construct: purchased Inspiralis (Norwich, UK) K0001

[12] = target: T2, P. aeruginosa DNA gyrase (Pseudomonas aeruginosa, UniProt P48372+Q9I7C2); test: Cell-free gyrase supercoiling inhibition assay; format: biochemical; details: purified enzyme, cell-free supercoiling kit
T2 construct: purchased Inspiralis (Norwich, UK) PAS001
T2 sequence (Q9I7C2 whole entry): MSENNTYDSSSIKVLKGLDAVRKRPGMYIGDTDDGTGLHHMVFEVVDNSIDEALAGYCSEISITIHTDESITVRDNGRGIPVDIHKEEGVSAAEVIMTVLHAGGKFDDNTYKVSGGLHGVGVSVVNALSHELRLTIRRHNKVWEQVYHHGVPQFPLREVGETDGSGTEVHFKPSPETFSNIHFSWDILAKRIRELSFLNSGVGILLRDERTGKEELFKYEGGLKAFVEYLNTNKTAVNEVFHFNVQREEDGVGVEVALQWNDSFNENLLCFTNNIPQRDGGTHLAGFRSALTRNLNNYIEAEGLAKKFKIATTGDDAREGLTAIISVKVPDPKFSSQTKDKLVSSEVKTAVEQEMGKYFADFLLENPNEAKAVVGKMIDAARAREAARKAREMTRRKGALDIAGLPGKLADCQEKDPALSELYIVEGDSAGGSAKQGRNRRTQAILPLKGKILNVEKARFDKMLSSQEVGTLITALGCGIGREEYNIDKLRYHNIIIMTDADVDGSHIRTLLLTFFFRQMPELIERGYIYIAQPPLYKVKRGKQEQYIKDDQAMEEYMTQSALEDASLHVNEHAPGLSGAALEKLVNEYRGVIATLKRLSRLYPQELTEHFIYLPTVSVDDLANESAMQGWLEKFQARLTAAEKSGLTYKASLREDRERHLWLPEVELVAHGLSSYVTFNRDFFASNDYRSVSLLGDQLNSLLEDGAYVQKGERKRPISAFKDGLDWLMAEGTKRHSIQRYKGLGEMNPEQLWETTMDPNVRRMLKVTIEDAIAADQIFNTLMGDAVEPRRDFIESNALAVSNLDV
T2 sequence (P48372 whole entry): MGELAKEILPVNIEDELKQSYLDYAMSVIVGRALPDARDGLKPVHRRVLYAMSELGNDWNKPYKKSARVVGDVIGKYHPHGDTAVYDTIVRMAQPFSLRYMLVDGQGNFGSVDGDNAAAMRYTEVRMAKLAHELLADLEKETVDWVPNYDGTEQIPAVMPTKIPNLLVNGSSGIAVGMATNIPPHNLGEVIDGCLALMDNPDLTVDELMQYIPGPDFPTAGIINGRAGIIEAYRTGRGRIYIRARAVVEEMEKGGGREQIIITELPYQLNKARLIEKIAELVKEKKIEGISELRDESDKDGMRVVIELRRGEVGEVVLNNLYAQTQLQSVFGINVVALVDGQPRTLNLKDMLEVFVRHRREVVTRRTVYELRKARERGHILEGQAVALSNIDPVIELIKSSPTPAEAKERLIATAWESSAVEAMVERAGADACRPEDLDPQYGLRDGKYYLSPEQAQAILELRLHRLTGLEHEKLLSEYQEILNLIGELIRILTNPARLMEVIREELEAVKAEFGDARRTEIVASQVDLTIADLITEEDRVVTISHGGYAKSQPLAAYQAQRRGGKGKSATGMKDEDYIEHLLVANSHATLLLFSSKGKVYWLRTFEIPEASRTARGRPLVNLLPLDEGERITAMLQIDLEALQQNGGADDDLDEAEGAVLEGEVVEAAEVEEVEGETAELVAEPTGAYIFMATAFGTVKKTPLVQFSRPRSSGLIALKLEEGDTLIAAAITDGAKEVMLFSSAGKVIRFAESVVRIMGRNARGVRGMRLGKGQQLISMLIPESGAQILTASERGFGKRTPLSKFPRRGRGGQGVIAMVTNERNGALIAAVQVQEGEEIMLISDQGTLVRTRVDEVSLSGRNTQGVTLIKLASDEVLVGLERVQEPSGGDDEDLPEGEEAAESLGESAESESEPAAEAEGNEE

[13] = M6, +PMBN (30 μg/mL), ciprofloxacin-sensitive strain (S)
[14] = M6, –PMBN, ciprofloxacin-sensitive strain (S)
[15] = LEC001, +PMBN (30 μg/mL), ciprofloxacin-resistant strain (R)
[16] = LEC001, –PMBN, ciprofloxacin-resistant strain (R)
[17] = NCTC12923, +PMBN (30 μg/mL), ciprofloxacin-sensitive strain (S)
[18] = NCTC12923, –PMBN, ciprofloxacin-sensitive strain (S)
[19] = +PMBN (30 μg/mL), ciprofloxacin-resistant strain (R)
[20] = –PMBN, ciprofloxacin-resistant strain (R)
[21] = PAO1, +PMBN (30 μg/mL), ciprofloxacin-sensitive strain (S)
[22] = PAO1, –PMBN, ciprofloxacin-sensitive strain (S)
[23] = NCTC13437, +PMBN (30 μg/mL), ciprofloxacin-resistant strain (R)
[24] = NCTC13437, –PMBN, ciprofloxacin-resistant strain (R)
[25] = ATCC17978, +PMBN (30 μg/mL), ciprofloxacin-sensitive strain (S)
[26] = ATCC17978, –PMBN, ciprofloxacin-sensitive strain (S)
[27] = NCTC13368, +PMBN (30 μg/mL), ciprofloxacin-resistant strain (R)
[28] = NCTC13368, –PMBN, ciprofloxacin-resistant strain (R)
[29] = RND-family efflux inhibitor PAβN
[30] = PAβN, text names A. baumannii only

MIC [1, 13]: 0.5 µg/mL (≈ 1.23 µM)
MIC [1, 14]: 1 to 2 µg/mL (≈ 2.45 to 4.91 µM)
potentiation of MIC by PMBN [1]: 2–4 fold
MIC [2, 15]: > 32 µg/mL
MIC [2, 16]: > 32 µg/mL
MIC [3, 17]: 0.25 µg/mL (≈ 0.614 µM)
MIC [3, 18]: 1 µg/mL (≈ 2.45 µM)
MIC [4, 19]: > 32 µg/mL
MIC [4, 20]: > 32 µg/mL
MIC [5, 21]: 0.5 µg/mL (≈ 1.23 µM)
MIC [5, 22]: 8 to 16 µg/mL (≈ 19.6 to 39.3 µM)
MIC [6, 23]: 32 µg/mL (≈ 78.5 µM)
MIC [6, 24]: > 32 µg/mL
MIC [7, 25]: 1 µg/mL (≈ 2.45 µM)
MIC [7, 26]: 2 µg/mL (≈ 4.91 µM)
potentiation of MIC by PMBN [7]: 2 fold
MIC [9, 27]: 2 µg/mL (≈ 4.91 µM)
MIC [9, 28]: 16 µg/mL (≈ 39.3 µM)
potentiation of MIC by PMBN [9]: 4–8 fold
Structure (SMILES): O=C(O)c1cn(-c2cccc3ccoc23)c2cc(N3CCNCC3)c(F)cc2c1=O [Compound 6d]
antibacterial activity [8]: limited activity

Structure (SMILES): O=C(O)c1cn(-c2cccc3ccsc23)c2cc(N3CCNCC3)c(F)cc2c1=O [Compound 6e]
MIC ([1]; M6, +PAβN (25 μg/mL), Table 3, strain S): 1 µg/mL (≈ 2.36 µM)
MIC [1, 13]: 2 µg/mL (≈ 4.72 µM)
MIC ([1]; M6, –PAβN, Table 3, strain S): 8 µg/mL (≈ 18.9 µM)
MIC [1, 14]: 8 µg/mL (≈ 18.9 µM)
potentiation of MIC by PMBN [1]: 2–4 fold
effect of PAβN on MIC [1, 29]: significant potentiation
MIC ([2]; LEC001, +PAβN (25 μg/mL), Table 3, strain R): > 32 µg/mL
MIC [2, 15]: > 32 µg/mL
MIC ([2]; LEC001, –PAβN, Table 3, strain R): > 32 µg/mL
MIC [2, 16]: > 32 µg/mL
effect of PAβN on MIC ([2]; PAβN, text names E. coli only): No effect
MIC ([3]; NCTC12923, +PAβN (25 μg/mL), Table 3, strain S): 0.25 µg/mL (≈ 0.59 µM)
MIC [3, 17]: 1 µg/mL (≈ 2.36 µM)
MIC ([3]; NCTC12923, –PAβN, Table 3, strain S): 0.25 to 2 µg/mL (≈ 0.59 to 4.72 µM)
MIC [3, 18]: 4 µg/mL (≈ 9.45 µM)
effect of PAβN on MIC ([3]; PAβN, text names E. coli only): No effect
solubility in assay media [10]: poorly soluble
MIC ([4]; +PAβN (25 μg/mL), Table 3, strain R): > 32 µg/mL
MIC [4, 19]: > 32 µg/mL
MIC ([4]; –PAβN, Table 3, strain R): > 32 µg/mL
MIC [4, 20]: > 32 µg/mL
effect of PAβN on MIC [4, 30]: Neither ciprofloxacin nor compound 6e showed any difference in MIC
MIC ([5]; PAO1, +PAβN (25 μg/mL), Table 3, strain S): 2 µg/mL (≈ 4.72 µM)
MIC [5, 21]: 2 µg/mL (≈ 4.72 µM)
MIC ([5]; PAO1, –PAβN, Table 3, strain S): 32 µg/mL (≈ 75.6 µM)
MIC [5, 22]: 32 µg/mL (≈ 75.6 µM)
MIC ([6]; NCTC13437, +PAβN (25 μg/mL), Table 3, strain R): > 32 µg/mL
MIC [6, 23]: 32 µg/mL (≈ 75.6 µM)
MIC ([6]; NCTC13437, –PAβN, Table 3, strain R): > 32 µg/mL
MIC [6, 24]: > 32 µg/mL
IC50 [11]: 6.38 µM
MIC ([7]; ATCC17978, +PAβN (25 μg/mL), Table 3, strain S): 4 µg/mL (≈ 9.45 µM)
MIC [7, 25]: 4 µg/mL (≈ 9.45 µM)
MIC ([7]; ATCC17978, –PAβN, Table 3, strain S): 4 µg/mL (≈ 9.45 µM)
MIC [7, 26]: 8 µg/mL (≈ 18.9 µM)
potentiation of MIC by PMBN [7]: 2 fold
effect of PAβN on MIC [7, 30]: Neither ciprofloxacin nor compound 6e showed any difference in MIC
IC50 [12]: 15.8 µM
antibacterial activity [8]: limited activity
MIC ([9]; NCTC13368, +PAβN (25 μg/mL), Table 3, strain R): 4 µg/mL (≈ 9.45 µM)
MIC [9, 27]: 8 µg/mL (≈ 18.9 µM)
MIC ([9]; NCTC13368, –PAβN, Table 3, strain R): > 32 µg/mL
MIC [9, 28]: 32 µg/mL (≈ 75.6 µM)
potentiation of MIC by PMBN [9]: 4–8 fold
effect of PAβN on MIC [9, 29]: significant potentiation
